# Measurements published in patent US10738056B2 (Aduro BioTech, Inc., priority 2017, dated 2020).
# Target: Human cGAS amino acids 155-522 (Homo sapiens (Human), UniProt Q8N884)
# Assay: cGAS biochemical activity assay (ATP remaining, Kinase-Glo Max luminescence)
# Details: human cGAS 155-522, ATP remaining (Kinase-Glo Max); read-out: cGAS IC50
# Human cGAS amino acids 155-522, sequence (Q8N884 157-522): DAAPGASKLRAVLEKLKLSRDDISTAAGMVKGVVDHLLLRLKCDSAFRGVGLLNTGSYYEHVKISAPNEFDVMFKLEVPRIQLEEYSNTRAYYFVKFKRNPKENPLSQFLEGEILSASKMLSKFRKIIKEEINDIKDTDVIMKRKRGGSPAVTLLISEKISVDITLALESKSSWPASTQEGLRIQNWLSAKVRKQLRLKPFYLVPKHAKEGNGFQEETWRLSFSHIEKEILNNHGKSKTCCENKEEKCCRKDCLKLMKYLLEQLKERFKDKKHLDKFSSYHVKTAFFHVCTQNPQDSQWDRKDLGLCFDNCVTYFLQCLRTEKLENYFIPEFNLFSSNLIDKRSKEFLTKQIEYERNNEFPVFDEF
row,Structure (SMILES),IC50
1,"Cc1ccccc1NC(=O)c1c(C)[nH]c2c(-c3ccccc3)c(C(F)(F)F)nn2c1=O [Compound A1037, 5-methyl-7-oxo-3-phenyl-N-(o-tolyl)-2-(trifluoromethyl)-4,7-dihydropyrazolo[1,5-a]pyrimidine-6-carboxamide]",20 to 250 µM
2,"COC(=O)Nc1ccccc1NC(=O)c1c(C)[nH]c2c(-c3ccccc3)c(C(F)(F)F)nn2c1=O [Compound A1038, methyl (2-(5-methyl-7-oxo-3-phenyl-2-(trifluoromethyl)-4,7-dihydropyrazolo[1,5-a]pyrimidine-6-carboxamido)phenyl)carbamate]",20 to 250 µM
3,"CC(=O)Nc1cccc(NC(=O)c2c(C)[nH]c3c(-c4ccccc4)c(C(F)(F)F)nn3c2=O)c1 [Compound A1039, N-(3-acetamidophenyl)-5-methyl-7-oxo-3-phenyl-2-(trifluoromethyl)-4,7-dihydropyrazolo[1,5-a]pyrimidine-6-carboxamide]",20 to 250 µM
4,"Cc1[nH]c2c(-c3ccccc3)c(C(F)(F)F)nn2c(=O)c1C(=O)Nc1nc[nH]n1 [Compound A1040, 5-methyl-7-oxo-3-phenyl-N-(1H-1,2,4-triazol-3-yl)-2-(trifluoromethyl)-4,7-dihydropyrazolo[1,5-a]pyrimidine-6-carboxamide]",20 to 250 µM
5,"Cc1[nH]c2c(-c3ccccc3)c(C(F)(F)F)nn2c(=O)c1C(=O)Nc1ccn(C2CCCCC2)n1 [Compound A1041, N-(1-cyclohexyl-1H-pyrazol-3-yl)-5-methyl-7-oxo-3-phenyl-2-(trifluoromethyl)-4,7-dihydropyrazolo[1,5-a]pyrimidine-6-carboxamide]",20 to 250 µM
6,"COCc1[nH]c2c(-c3ccccc3)c(C(F)(F)F)nn2c(=O)c1C(=O)Nc1ccccc1OC [Compound A1042, 5-(methoxymethyl)-N-(2-methoxyphenyl)-7-oxo-3-phenyl-2-(trifluoromethyl)-4,7-dihydropyrazolo[1,5-a]pyrimidine-6-carboxamide]",20 to 250 µM
7,"COc1cccc(NC(=O)c2c(C)[nH]c3c(-c4ccccc4)c(C(F)(F)F)nn3c2=O)c1OC [Compound A1043, N-(2,3-dimethoxyphenyl)-5-methyl-7-oxo-3-phenyl-2-(trifluoromethyl)-4,7-dihydropyrazolo[1,5-a]pyrimidine-6-carboxamide]",20 to 250 µM
8,"Cc1[nH]c2c(-c3ccccc3)c(C(F)(F)F)nn2c(=O)c1C(=O)Nc1ccccc1OC1CCCC1 [Compound A1044, N-(2-(cyclopentyloxy)phenyl)-5-methyl-7-oxo-3-phenyl-2-(trifluoromethyl)-4,7-dihydropyrazolo[1,5-a]pyrimidine-6-carboxamide]",20 to 250 µM
9,"Cc1[nH]c2c(-c3ccccc3)c(C(F)(F)F)nn2c(=O)c1C(=O)Nc1cccc(NS(C)(=O)=O)c1 [Compound A1045, 5-methyl-N-(3-(methylsulfonamido)phenyl)-7-oxo-3-phenyl-2-(trifluoromethyl)-4,7-dihydropyrazolo[1,5-a]pyrimidine-6-carboxamide]",< 20 µM
10,"Cc1[nH]c2c(-c3ccccc3)c(C(F)(F)F)nn2c(=O)c1C(=O)Nc1cccc(N(S(C)(=O)=O)S(C)(=O)=O)c1 [Compound A1046, 5-methyl-N-(3-(N-(methylsulfonyl)methylsulfonamido)phenyl)-7-oxo-3-phenyl-2-(trifluoromethyl)-4,7-dihydropyrazolo[1,5-a]pyrimidine-6-carboxamide]",20 to 250 µM
11,"Cc1[nH]c2c(-c3ccccc3)c(C(F)(F)F)nn2c(=O)c1C(=O)Nc1ccncc1 [Compound A1047, 5-methyl-7-oxo-3-phenyl-N-(pyridin-4-yl)-2-(trifluoromethyl)-4,7-dihydropyrazolo[1,5-a]pyrimidine-6-carboxamide]",20 to 250 µM
12,"Cc1[nH]c2c(-c3ccccc3)c(C(F)(F)F)nn2c(=O)c1C(=O)Nc1ccccc1OC(F)(F)F [Compound A1049, 5-methyl-7-oxo-3-phenyl-N-(2-(trifluoromethoxy)phenyl)-2-(trifluoromethyl)-4,7-dihydropyrazolo[1,5-a]pyrimidine-6-carboxamide]",20 to 250 µM
13,"Cc1[nH]c2c(-c3ccccc3)c(C(F)(F)F)nn2c(=O)c1C(=O)Nc1cccc(OC(F)(F)F)c1 [Compound A1050, 5-methyl-7-oxo-3-phenyl-N-(3-(trifluoromethoxy)phenyl)-2-(trifluoromethyl)-4,7-dihydropyrazolo[1,5-a]pyrimidine-6-carboxamide]",20 to 250 µM

# Continued, values first:
row,IC50,Structure (SMILES)
1,20 to 250 µM,"Cc1[nH]c2c(-c3ccccc3)c(C(F)(F)F)nn2c(=O)c1C(=O)Nc1ccccc1N(C)C [Compound A1053, N-(2-(dimethylamino)phenyl)-5-methyl-7-oxo-3-phenyl-2-(trifluoromethyl)-4,7-dihydropyrazolo[1,5-a]pyrimidine-6-carboxamide]"
2,20 to 250 µM,"Cc1[nH]c2c(-c3ccccc3)c(C(F)(F)F)nn2c(=O)c1C(=O)Nc1ccccc1N1CCCC1 [Compound A1054, 5-methyl-7-oxo-3-phenyl-N-(2-(pyrrolidin-1-yl)phenyl)-2-(trifluoromethyl)-4,7-dihydropyrazolo[1,5-a]pyrimidine-6-carboxamide]"
3,20 to 250 µM,"Cc1[nH]c2c(-c3ccccc3)c(C(F)(F)F)nn2c(=O)c1C(=O)Nc1ccccc1N1CCCCC1 [Compound A1055, 5-methyl-7-oxo-3-phenyl-N-(2-(piperidin-1-yl)phenyl)-2-(trifluoromethyl)-4,7-dihydropyrazolo[1,5-a]pyrimidine-6-carboxamide]"
4,20 to 250 µM,"COc1ccccc1NC(=O)c1c[nH]c2c(-c3ccccc3)c(C(F)(F)F)nn2c1=O [Compound A1057, N-(2-methoxyphenyl)-7-oxo-3-phenyl-2-(trifluoromethyl)-4,7-dihydropyrazolo[1,5-a]pyrimidine-6-carboxamide]"
5,20 to 250 µM,"Cc1[nH]c2c(-c3ccccc3)c(C(F)(F)F)nn2c(=O)c1C(=O)Nc1[nH]nc(C(F)(F)F)c1C(C)C [Compound A1058, N-(4-isopropyl-3-(trifluoromethyl)-1H-pyrazol-5-yl)-5-methyl-7-oxo-3-phenyl-2-(trifluoromethyl)-4,7-dihydropyrazolo[1,5-a]pyrimidine-6-carboxamide]"
6,20 to 250 µM,"Cc1[nH]c2c(-c3ccccc3)c(C(F)(F)F)nn2c(=O)c1C(=O)Nc1ccccc1OC(C)C [Compound A1060, N-(2-isopropoxyphenyl)-5-methyl-7-oxo-3-phenyl-2-(trifluoromethyl)-4,7-dihydropyrazolo[1,5-a]pyrimidine-6-carboxamide]"
7,20 to 250 µM,"Cc1[nH]c2c(-c3ccccc3)c(C(F)(F)F)nn2c(=O)c1C(=O)Nc1[nH]nc(C(F)(F)F)c1C1CCCC1 [Compound A1061, N-(4-cyclopentyl-3-(trifluoromethyl)-1H-pyrazol-5-yl)-5-methyl-7-oxo-3-phenyl-2-(trifluoromethyl)-4,7-dihydropyrazolo[1,5-a]pyrimidine-6-carboxamide]"
8,20 to 250 µM,"COc1ccc(F)cc1NC(=O)c1c(C)[nH]c2c(-c3ccccc3)c(C(F)(F)F)nn2c1=O [Compound A1071, N-(5-fluoro-2-methoxyphenyl)-5-methyl-7-oxo-3-phenyl-2-(trifluoromethyl)-4,7-dihydropyrazolo[1,5-a]pyrimidine-6-carboxamide]"
9,20 to 250 µM,"Cc1[nH]c2c(-c3ccccc3)c(C(F)(F)F)nn2c(=O)c1C(=O)Nc1ccnn1C [Compound A1078, 5-methyl-N-(1-methyl-1H-pyrazol-5-yl)-7-oxo-3-phenyl-2-(trifluoromethyl)-4,7-dihydropyrazolo[1,5-a]pyrimidine-6-carboxamide]"
